Test results taken from ChEMBL document CHEMBL5236572, “Bioactive Aurones, Indanones, and Other Hemiindigoid Scaffolds: Medicinal Chemistry and Photopharmacology Perspectives” (J Med Chem, 2022).
Converted amounts (≈) assume the structure as drawn.

Key:
[1] = system: Human immunodeficiency virus 1; experiment: Antiviral activity against HIV-1 infected in human C8166 cells assessed as reduction in virus-induced cytopathic effect by MTT assay; format: functional, organism-based; settings: Human immunodeficiency virus 1, C8166
[2] = biological target: T1, Tyrosinase (Agaricus bisporus, UniProt O42713); experiment: Inhibition of Agaricus bisporus tyrosinase using L-DOPA as substrate incubated for 10 mins by spectrophotometric analysis
T1 sequence (O42713 whole entry): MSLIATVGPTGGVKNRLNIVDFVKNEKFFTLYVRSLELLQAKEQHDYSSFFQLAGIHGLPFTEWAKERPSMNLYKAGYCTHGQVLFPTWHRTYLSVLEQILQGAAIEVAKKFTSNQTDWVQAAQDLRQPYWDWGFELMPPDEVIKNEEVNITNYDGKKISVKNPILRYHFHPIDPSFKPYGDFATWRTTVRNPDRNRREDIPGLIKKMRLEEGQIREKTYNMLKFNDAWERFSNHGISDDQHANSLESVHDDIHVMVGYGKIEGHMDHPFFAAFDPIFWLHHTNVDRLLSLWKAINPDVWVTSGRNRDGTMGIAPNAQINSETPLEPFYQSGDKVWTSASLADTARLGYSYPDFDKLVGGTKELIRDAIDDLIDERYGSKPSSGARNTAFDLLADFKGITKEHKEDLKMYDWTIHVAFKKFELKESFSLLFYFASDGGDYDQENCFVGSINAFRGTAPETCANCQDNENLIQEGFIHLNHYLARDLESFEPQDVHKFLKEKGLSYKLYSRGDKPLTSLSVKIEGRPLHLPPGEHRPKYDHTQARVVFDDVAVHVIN

[3] = Inhibition of Polyporus arcularius tyrosinase using L-DOPA as substrate incubated for 10 mins by spectrophotometric analysis
[4] = Inhibition of Saccharomyces cerevisiae full-length ai5gamma intron self-splicing by fluorimetric assay
[5] = system: Candida parapsilosis; experiment: Antifungal activity against Candida parapsilosis assessed as reduction in fungal growth; format: functional; settings: Lodderomyces parapsilosis
[6] = biological target: Amyloid-beta precursor protein (Homo sapiens, UniProt P05067); experiment: Binding affinity to human brain homogenate amyloid beta by radioligand competition binding assay; format: tissue-based
[7] = biological target: Serine/threonine-protein kinase AKT (Homo sapiens, UniProt P31751+Q9Y243+P31749); experiment: Inhibition of AKT (unknown origin); format: protein assay
[8] = system: MES-SA; experiment: Antiproliferative activity against human MES-SA cells assessed as reduction in cell viability incubated for 72 hrs by PrestoBlue cell viability assay; format: functional, cell-based
[9] = system: MES-SA/Dx5; experiment: Antiproliferative activity against doxorubicin resistant human MES-SA/Dx5 cells assessed as reduction in cell viability incubated for 72 hrs by PrestoBlue cell viability assay; format: functional, cell-based; settings: MES-SA/Dx5, 72 h
[10] = Selectivity ratio of IC50 for antiproliferative activity against human MES-SA cells to IC50 for antiproliferative activity against doxorubicin resistant human MES-SA/Dx5 cells; format: functional
[11] = biological target: Tubulin (Sus scrofa, UniProt P02554+P02550); experiment: Inhibition of porcine brain tubulin polymerization preincubated for 1 mins followed by GTP addition and measured for 60 mins at 1 min interval by fluorescence assay
[12] = system: HeLa; experiment: Antiproliferative activity against human HeLa cells assessed as reduction in cell viability incubated for 48 hrs by MTT assay; format: functional, cell-based
[13] = system: A549; experiment: Antiproliferative activity against human A549 cells assessed as reduction in cell viability incubated for 48 hrs by MTT assay; format: functional, cell-based; settings: A549, 48 h
[14] = system: Bel-7402; experiment: Antiproliferative activity against human Bel-7402 cells assessed as reduction in cell viability incubated for 48 hrs by MTT assay; format: functional, cell-based; settings: Bel-7402, 48 h
[15] = system: PC-3; experiment: Antiproliferative activity against human PC-3 cells assessed as reduction in cell viability incubated for 48 hrs by MTT assay; format: functional, cell-based; settings: PC-3, 48 h
[16] = system: MDA-MB-231; experiment: Antiproliferative activity against human MDA-MB-231 cells assessed as reduction in cell viability incubated for 48 hrs by MTT assay; format: functional, cell-based; settings: MDA-MB-231, 48 h
[17] = biological target: T2, Amine oxidase [flavin-containing] A (Homo sapiens, UniProt P21397); experiment: Inhibition of recombinant human MAO-A assessed as inhibition of 4-hydroxyquinoline formation using kynuramine as substrate incubated for 20 mins by fluorescence assay
T2 sequence (P21397 whole entry): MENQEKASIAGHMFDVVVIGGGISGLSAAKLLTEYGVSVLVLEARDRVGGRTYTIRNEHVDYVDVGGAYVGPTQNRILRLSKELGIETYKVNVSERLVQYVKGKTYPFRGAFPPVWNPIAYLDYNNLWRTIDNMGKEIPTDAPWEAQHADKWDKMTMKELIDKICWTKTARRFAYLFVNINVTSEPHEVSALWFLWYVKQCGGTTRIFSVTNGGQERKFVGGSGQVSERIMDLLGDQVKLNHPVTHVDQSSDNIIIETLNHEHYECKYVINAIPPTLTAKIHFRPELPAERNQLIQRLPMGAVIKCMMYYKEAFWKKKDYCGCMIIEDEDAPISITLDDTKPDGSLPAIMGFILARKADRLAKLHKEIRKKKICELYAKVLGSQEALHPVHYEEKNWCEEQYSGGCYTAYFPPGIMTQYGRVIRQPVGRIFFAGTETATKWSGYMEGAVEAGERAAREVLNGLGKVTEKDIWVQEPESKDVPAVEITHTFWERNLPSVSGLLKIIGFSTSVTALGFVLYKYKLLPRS

[18] = biological target: T3, Amine oxidase [flavin-containing] B (Homo sapiens, UniProt P27338); experiment: Inhibition of recombinant human MAO-B assessed as inhibition of 4-hydroxyquinoline formation using kynuramine as substrate incubated for 20 mins by fluorescence assay
T3 sequence (P27338 whole entry): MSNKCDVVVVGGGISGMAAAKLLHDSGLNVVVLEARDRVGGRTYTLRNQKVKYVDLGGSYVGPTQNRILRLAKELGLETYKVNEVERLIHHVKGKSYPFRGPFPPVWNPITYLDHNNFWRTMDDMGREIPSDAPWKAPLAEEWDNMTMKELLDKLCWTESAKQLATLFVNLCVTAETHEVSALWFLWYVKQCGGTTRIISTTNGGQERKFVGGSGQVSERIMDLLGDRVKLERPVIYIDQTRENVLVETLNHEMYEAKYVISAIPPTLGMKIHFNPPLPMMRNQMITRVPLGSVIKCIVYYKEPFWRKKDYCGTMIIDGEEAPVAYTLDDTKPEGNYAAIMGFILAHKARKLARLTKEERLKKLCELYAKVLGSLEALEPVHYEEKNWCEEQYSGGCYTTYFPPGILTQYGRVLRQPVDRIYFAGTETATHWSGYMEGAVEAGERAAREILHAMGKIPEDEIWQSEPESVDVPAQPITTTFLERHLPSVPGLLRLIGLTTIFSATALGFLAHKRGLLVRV

[19] = biological target: Retinoic acid receptor alpha (Homo sapiens, UniProt P10276); experiment: Antagonist activity at Gal4-RARalpha transfected in HEK293 cells assessed as atRA-induced RARalpha transactivation and measured after 6 hrs by Dual-Light chemiluminiscence assay; format: cell-based
[20] = system: THP-1; experiment: Antiproliferative activity against human THP-1 cells assessed as reduction in cell viability incubated for 48 hrs by sulforhodamine assay; format: functional, cell-based; settings: THP-1, 48 h
[21] = system: HCT-116; experiment: Antiproliferative activity against human HCT-116 cells assessed as reduction in cell viability incubated for 48 hrs by sulforhodamine assay; format: functional, cell-based; settings: HCT-116, 48 h
[22] = system: MCF7; experiment: Antiproliferative activity against human MCF7 cells assessed as reduction in cell viability incubated for 48 hrs by sulforhodamine assay; format: functional, cell-based; settings: MCF7, 48 h
[23] = system: T47D; experiment: Antiproliferative activity against human T47D cells assessed as reduction in cell viability incubated for 48 hrs by sulforhodamine assay; format: functional, cell-based
[24] = system: A549; experiment: Antiproliferative activity against human A549 cells assessed as reduction in cell viability incubated for 48 hrs by sulforhodamine assay; format: functional, cell-based; settings: A549, 48 h
[25] = species on record: Homo sapiens; experiment: Selectivity index, ratio of IC50 for inhibition of recombinant human MAO-A to IC50 for inhibition of recombinant human MAO-B

Retinoic acid receptor alpha, sequence (P10276 whole entry, the tested form may be a part): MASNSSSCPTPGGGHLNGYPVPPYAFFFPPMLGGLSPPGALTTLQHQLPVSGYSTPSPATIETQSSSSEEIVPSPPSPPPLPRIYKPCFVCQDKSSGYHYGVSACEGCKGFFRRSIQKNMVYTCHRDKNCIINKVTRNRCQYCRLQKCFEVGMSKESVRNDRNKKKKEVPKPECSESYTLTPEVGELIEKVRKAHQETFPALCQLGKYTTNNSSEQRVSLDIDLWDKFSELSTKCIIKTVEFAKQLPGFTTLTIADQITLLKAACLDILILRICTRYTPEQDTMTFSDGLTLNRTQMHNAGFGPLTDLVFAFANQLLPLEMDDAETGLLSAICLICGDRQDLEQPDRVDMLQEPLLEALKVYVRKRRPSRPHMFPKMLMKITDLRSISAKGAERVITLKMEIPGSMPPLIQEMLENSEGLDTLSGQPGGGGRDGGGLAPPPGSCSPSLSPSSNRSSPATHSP
Amyloid-beta precursor protein, sequence (P05067 whole entry): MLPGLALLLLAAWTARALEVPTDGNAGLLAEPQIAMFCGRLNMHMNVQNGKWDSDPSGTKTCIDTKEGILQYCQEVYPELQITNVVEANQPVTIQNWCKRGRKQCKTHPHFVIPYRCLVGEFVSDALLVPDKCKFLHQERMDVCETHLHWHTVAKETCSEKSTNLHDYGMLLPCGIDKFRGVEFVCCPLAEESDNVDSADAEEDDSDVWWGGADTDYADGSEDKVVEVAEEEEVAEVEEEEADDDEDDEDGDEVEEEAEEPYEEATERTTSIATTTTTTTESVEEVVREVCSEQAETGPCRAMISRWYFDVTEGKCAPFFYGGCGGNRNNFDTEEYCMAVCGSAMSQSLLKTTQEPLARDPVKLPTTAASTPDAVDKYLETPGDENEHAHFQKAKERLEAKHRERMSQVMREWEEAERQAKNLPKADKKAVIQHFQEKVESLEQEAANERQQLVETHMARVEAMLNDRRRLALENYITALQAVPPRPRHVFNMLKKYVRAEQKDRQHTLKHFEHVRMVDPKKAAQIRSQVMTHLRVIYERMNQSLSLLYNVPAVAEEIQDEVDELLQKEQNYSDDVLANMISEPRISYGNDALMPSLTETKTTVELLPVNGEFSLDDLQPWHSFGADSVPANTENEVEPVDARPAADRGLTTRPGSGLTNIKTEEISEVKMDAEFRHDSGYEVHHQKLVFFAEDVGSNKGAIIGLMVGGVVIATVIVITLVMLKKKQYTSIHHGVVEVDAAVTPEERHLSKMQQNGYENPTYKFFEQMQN

## O=C1/C(=C/c2ccc(O)c(O)c2)Oc2c1ccc(O)c2O
[1]
  EC50: 12 µM

## O=C1/C(=C/c2ccc(O)cc2O)Oc2cccc(O)c21
[2]
  IC50: 4 µM
[3]
  IC50: 34 µM

## O=C1/C(=C/c2cc(O)c(O)c(O)c2)Oc2ccccc21
[4]
  Ki: 2.1 µM
[5]
  MIC: 53 µM (≈ 14.3 µg/mL)

## CN(C)c1ccc(/C=C2\Nc3ccc(I)cc3C2=O)cc1
[6]
  Ki: 0.24 µM

## Cc1ccc(C)c2c1C/C(=C\c1ccccc1)C2=O
[7]
  IC50: 0.207 µM

## COc1cc(OC)c2c(c1)O/C(=C\c1ccc(N(C)C)cc1)C2=O
[8]
  IC50: 60 µM
[9]
  IC50: 15 µM
[10]
  Ratio IC50: 4

## COc1ccc(/C=C2\Cc3c(cc(OC)c(OC)c3OC)C2=O)cc1O
[11]
  IC50: 7.56 µM
[12]
  IC50: 0.17 µM
[13]
  IC50: 0.17 µM
[14]
  IC50: 0.17 µM
[15]
  IC50: 0.17 µM
[16]
  IC50: 0.17 µM

## CCCCc1ccc(/C=C2\Nc3cc(OC)cc(OC)c3C2=O)cc1
[10]
  Ratio IC50: 4.8

## COc1ccc2c(c1)C/C(=C\c1ccc(Br)o1)C2=O
[17]
  IC50: 0.18 µM
[18]
  IC50: 0.04 µM

## O=C1/C(=C(\O)c2cccc(Br)c2)Sc2ccccc21
[17]
  IC50: 63 µM
[18]
  IC50: 0.35 µM

## COCCOCOc1cc2c(cc1C13CC4CC(CC(C4)C1)C3)C(=O)/C(=C/c1ccc(C(=O)O)cc1)O2
[19]
  IC50: 4.42 µM

## COc1cc(C2/C(=C/c3ccc([N+](=O)[O-])cc3)C(=O)c3cc(OC)c(OC)c(OC)c32)cc(OC)c1OC (stereo unspecified)
[11]
  IC50: 1.5 µM
[20]
  IC50: 4 µM
[21]
  IC50: 4 µM
[22]
  IC50: 4 µM
[23]
  IC50: 4 µM
[24]
  IC50: 4 µM

## COc1ccc2c(c1)O/C(=C\n1ccc3ccccc31)C2=O
[17]
  IC50: > 100 µM
[18]
  IC50: 0.0026 µM
[25]
  Ratio IC50: > 38000
